Measurements: patent US12133921B2, “Capsule filling composition, method of producing capsule formulation with the use of capsule filling composition, and capsule formulation” (SHIN-ETSU CHEMICAL CO., LTD., priority 2019, dated 2024)

Test: Compressibility index of the active ingredient
Assay type: physicochemical
Details: 2,000 mg compressed at 0.5 N, remaining weight after three droppings from 1 cm, n=5
Experimental: The active ingredient weighing 2,000 mg was introduced into a polycarbonate tube (a hollow cylindrical form with an inner diameter of 12.5 mm and a height of 52.0 mm; “polycarbonate spacer (hollow) CPC (CPC-1252); manufactured by Hirosugi Keiki Co., Ltd.) which was left to stand on a stainless steel bat. Next, by using a tension and compression testing machine (“SDT—503 NB”; manufactured by Imada Seisakusho Co., Ltd.), the active ingredient within the polycarbonate tube was compressed by a cylindrical tool having a contact surface of 11.28 mmΦ in diameter to prepare a compressed product (compression condition; speed: 100 mm/min., load: 0.5 N, load maintaining time: 1 sec.). […]
The lifted polycarbonate tube was released from the fingers, and dropped down. After repeating this procedure three times, the remaining weight of the polycarbonate tube containing the compressed product of the active ingredient was measured as a weight after test.
The amount of powder flowing out from the polycarbonate tube was determined by subtracting the weight after test from the weight before test. Furthermore, the remaining weight of the compressed product of the active ingredient was determined by subtracting the amount of powder flowing out from the polycarbonate tube from the weight before test. […]

- compressibility index: 5%
Compound: Cc1cc2nc3c(=O)[nH]c(=O)nc-3n(C[C@H](O)[C@H](O)[C@H](O)CO)c2cc1C [vitamin B2, riboflavin]
